Target: T1, Jarid1A (Homo sapiens, UniProt P29375)
T1 construct: purchased BPS Bioscience 50110
T1 sequence (P29375 1-1090): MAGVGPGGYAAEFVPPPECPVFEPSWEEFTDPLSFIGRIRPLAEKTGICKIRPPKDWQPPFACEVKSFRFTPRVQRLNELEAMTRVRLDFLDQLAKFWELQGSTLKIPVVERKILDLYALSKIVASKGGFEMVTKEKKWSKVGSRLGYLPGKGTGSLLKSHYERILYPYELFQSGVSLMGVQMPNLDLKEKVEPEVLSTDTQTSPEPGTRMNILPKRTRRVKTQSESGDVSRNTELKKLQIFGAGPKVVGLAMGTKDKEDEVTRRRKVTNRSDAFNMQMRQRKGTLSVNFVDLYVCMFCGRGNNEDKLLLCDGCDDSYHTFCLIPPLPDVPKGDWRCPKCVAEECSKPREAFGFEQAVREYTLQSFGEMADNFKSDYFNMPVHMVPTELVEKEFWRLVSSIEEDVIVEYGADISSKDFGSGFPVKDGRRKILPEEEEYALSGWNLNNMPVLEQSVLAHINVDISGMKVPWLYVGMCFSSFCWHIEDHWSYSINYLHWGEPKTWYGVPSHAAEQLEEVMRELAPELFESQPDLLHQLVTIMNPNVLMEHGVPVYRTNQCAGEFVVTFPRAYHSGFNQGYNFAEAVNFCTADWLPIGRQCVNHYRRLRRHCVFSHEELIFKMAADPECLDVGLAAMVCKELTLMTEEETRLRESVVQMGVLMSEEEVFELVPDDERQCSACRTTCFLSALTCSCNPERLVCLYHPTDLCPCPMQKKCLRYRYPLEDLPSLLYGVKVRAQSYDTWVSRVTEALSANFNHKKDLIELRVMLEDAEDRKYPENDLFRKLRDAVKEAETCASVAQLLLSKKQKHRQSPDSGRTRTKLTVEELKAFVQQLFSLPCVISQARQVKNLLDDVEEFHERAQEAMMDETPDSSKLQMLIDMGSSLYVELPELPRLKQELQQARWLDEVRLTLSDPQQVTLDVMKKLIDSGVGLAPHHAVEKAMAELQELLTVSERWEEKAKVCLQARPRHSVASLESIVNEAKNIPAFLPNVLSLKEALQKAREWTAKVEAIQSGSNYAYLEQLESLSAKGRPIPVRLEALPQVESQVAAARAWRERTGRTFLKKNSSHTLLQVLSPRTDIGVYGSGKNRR
Assay: Jarid1A in vitro enzyme inhibition assay (TR-FRET)
Assay type: biochemical
Excerpt: This assay determines the ability of a test compound to inhibit Jarid1A, Jarid1B, and JMJD2C demethylase activity. Baculovirus expressed Jarid1A (GenBank Accession #NM_001042603, AA1-1090) was purchased from BPS Bioscience (Cat#50110). Baculovirus expressed Jarid1B (GenBank Accession #NM_006618, AA 2-751) was purchased from BPS Bioscience (Cat #50121) or custom made by MolecularThroughput. Baculovirus expressed JMJD2C (GenBank Accession #BC143571, AA 2-372) was purchased from BPS Bioscience (Cat#50105).
The enzymatic assay of Jarid1A activity is based upon Time Resolved-Fluorescence Resonance Energy Transfer (TR-FRET) detection. The ability of test compounds to inhibit the activity of Jarid1A was determined in 384-well plate format under the following reaction conditions: 1 nM Jarid1A, 300 nM H3K4me3-biotin labeled peptide (Anaspec cat #64357), 2 μM alpha-ketoglutaric acid in assay buffer of 50 mM HEPES, pH7.3, 0.005% Brij35, 0.5 mM TCEP, 0.2 mg/ml BSA, 50 μM sodium L-ascorbate, and 2 μM ammonium iron(II) sulfate. Reaction product was determined quantitatively by TR-FRET after the addition of detection reagent Phycolink Streptavidin-allophycocyanin (Prozyme) and Europium-anti-mono-or di-methylated histone H3 lysine 4 (H3K4me1-2) antibody (PerkinElmer) in the presence of 5 mM EDTA in LANCE detection buffer (PerkinElmer) at a final concentration of 25 nM and 1 nM, respectively.
The assay reaction was initiated by the following: 2 μl of the mixture of 900 nM H3K4me3-biotin labeled peptide and 6 μM alpha-ketoglutaric acid with 2 μl of 11-point serial diluted inhibitor in 3% DMSO was added to each well of plate, followed by the addition of 2 μl of 3 nM Jarid1A to initiate the reaction. The reaction mixture was incubated at room temperature for 30 minutes, and terminated by the addition of 6 μl of 5 mM EDTA in LANCE detection buffer containing 50 nM Phycolink Streptavidin-allophycocyanin and 2 nM Europium-anti-H3K4me1-2 antibody. Plates were read by EnVisionMultilabel Reader in TR-FRET mode (excitation at 320 nm, emission at 615 nm and 665 nm) after 1 hour incubation at room temperature. A ratio was calculated (665/615) for each well and fitted to determine inhibition constant (IC50).

Structure (SMILES) | IC50 [nM]
Cn1cnc(-c2nccc3c(O)nc(OCC(C)(C)O)nc23)c1 [Example 98, 2-(2-hydroxy-2-methylpropoxy)-8-(1-methylimidazol-4-yl)pyrido[3,4-d]pyrimidin-4-ol] | 100 to 1000
Cn1cnc(-c2nccc3c(O)nc(OCC4CCOCC4)nc23)c1 [Example 102, 8-(1-methyl-1H-imidazol-4-yl)-2-(oxan-4-ylmethoxy)pyrido[3,4-d]pyrimidin-4-ol] | 100 to 1000
Cn1cnc(-c2nccc3c(O)nc(OCC4CCOC4)nc23)c1 (stereo not shown) [Example 103, 8-(1-methyl-1H-imidazol-4-yl)-2-(oxolan-3-ylmethoxy)pyrido[3,4-d]pyrimidin-4-ol] | 100 to 1000
Cn1cnc(-c2nccc3c(O)nc(OCc4cccc(F)c4)nc23)c1 [Example 104, 2-[(3-fluorophenyl)methoxy]-8-(1-methyl-1H-imidazol-4-yl)pyrido[3,4-d]pyrimidin-4-ol] | 100 to 1000
Cn1cnc(-c2nccc3c(O)nc(OCc4ccccc4Cl)nc23)c1 [Example 105, 2-[(2-chlorophenyl)methoxy]-8-(1-methyl-1H-imidazol-4-yl)pyrido[3,4-d]pyrimidin-4-ol] | 1000 to 10000
Cn1cnc(-c2nccc3c(O)nc(OCc4cccc(Cl)c4Cl)nc23)c1 [Example 106, 2-[(2,3-dichlorophenyl)methoxy]-8-(1-methyl-1H-imidazol-4-yl)pyrido[3,4-d]pyrimidin-4-ol] | 1000 to 10000

Further lines, results first:

IC50 [nM] | Structure (SMILES)
≤ 100 | Oc1nc(Oc2ccnc(N3CCOCC3)c2)nc2cnccc12 [Example 97, 2-(2-morpholin-4-ylpyridin-4-yl)oxypyrido[3,4-d]pyrimidin-4-ol]
≤ 100 | CC(c1ccccc1)n1cc(Oc2nc(O)c3ccncc3n2)cn1 (stereo not shown) [Example 99]
≤ 100 | Cn1cnc(-c2nccc3c(O)nc(Oc4cnn(C5CCOCC5)c4)nc23)c1 [Example 100, 8-(1-methylimidazol-4-yl)-2-[1-(oxan-4-yl)pyrazol-4-yl]oxypyrido[3,4-d]pyrimidin-4-ol]
≤ 100 | Cn1cnc(-c2nccc3c(O)nc(OCc4ccccc4)nc23)c1 [Example 101, 8-(1-methylimidazol-4-yl)-2-phenylmethoxypyrido[3,4-d]pyrimidin-4-ol]

— US10526327B2, “Histone demethylase inhibitors” (CELGENE QUANTICEL RESEARCH, INC., priority 2013, dated 2020)
